Some test systems named below: 786-0 renal; A498 renal; A549 NSCLC; CAKI-1 renal; HL-60(TB) leukemia; MDA-MB-435; SK-MEL-5 melanoma; SW-620 colon; T-47D breast; UACC-257 melanoma.
Common to all, as to assay: NCI tumour cell line growth inhibition, 48 h

Structures are written as SMILES.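 Following 48 hours of exposure in 96-well plates, responses at five concentrations were used to interpolate endpoints linearly. Here, GI50 denotes the concentration required for 50% inhibition of growth. Definition used: TGI = concentration required for complete inhibition of growth.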

As to `CN(C)CCOc1ccc([N+](=O)[O-])c2cccnc12`, the TGI in the test with 786-0 renal, in the test on A498 renal, with A549 NSCLC, with CAKI-1 renal, in the test with HL-60(TB) leukemia and with MDA-MB-435 was greater than 100 µM in each case. For the same molecule, the TGI in the test on SK-MEL-5 melanoma, in the test with SW-620 colon, in the test with T-47D breast and in the test on UACC-257 melanoma was greater than 100 µM in each case.

Take `O=C1C=CC(=O)C2C1C1(Cl)C(Cl)=C(Cl)C2(Cl)C1(Cl)Cl` (stereo not drawn): the GI50 was 12.5 µM in the test on 786-0 renal; 1.46 µM with A498 renal; 5.5 µM with A549 NSCLC; 2.84 µM in the test on CAKI-1 renal; 2.71 µM with HL-60(TB) leukemia; 1.69 µM with MDA-MB-435. The GI50 in the test with SK-MEL-5 melanoma was 6.61 µM; in the test on SW-620 colon, 3.94 µM; in the test on T-47D breast it was 4.95 µM; with UACC-257 melanoma it was 6.82 µM. Besides, the TGI in the test on 786-0 renal amounted to 30.1 µM; in the test on A498 renal, 5.8 µM; in the test with A549 NSCLC, 26.5 µM; in the test on CAKI-1 renal it was 12.1 µM; with HL-60(TB) leukemia, 11 µM; with MDA-MB-435, 4.06 µM. Besides, the TGI with SK-MEL-5 melanoma came to 19.4 µM; in the test on SW-620 colon it was 15.1 µM; in the test on T-47D breast, 22.7 µM; in the test with UACC-257 melanoma, 20 µM.

For the molecule `COC(=O)c1ccc2[nH]c(O)c(C(=Nc3ccc(N(C)C(=O)CN4CCN(C)CC4)cc3)c3ccc4c(c3)OCO4)c2c1`, the GI50 was 0.692 µM with 786-0 renal; 0.703 µM with A498 renal; 1.09 µM in the test with A549 NSCLC; 0.26 µM in the test on CAKI-1 renal; 0.415 µM in the test with HL-60(TB) leukemia; 0.724 µM in the test on MDA-MB-435. The GI50 is 0.878 µM with SK-MEL-5 melanoma, 0.348 µM with SW-620 colon, 0.739 µM with T-47D breast and 2.27 µM in the test on UACC-257 melanoma. The TGI with 786-0 renal is 2.14 µM; with A498 renal, 2.18 µM; in the test on A549 NSCLC, 4.12 µM; in the test on CAKI-1 renal, 4.07 µM; in the test with HL-60(TB) leukemia, 1.82 µM; in the test with MDA-MB-435 it was 2.19 µM. The TGI with SK-MEL-5 melanoma stood at 2.17 µM; with SW-620 colon, 2.21 µM; in the test on T-47D breast it was 8 µM; with UACC-257 melanoma, 6.77 µM.

As to `COc1cccc2c1C(=N)c1c(O)c3c(c(O)c1C2=O)C[C@@](O)(C(C)=O)C[C@@H]3O[C@H]1C[C@H](N)[C@H](O)[C@H](C)O1`, the GI50 is 0.254 µM in the test on 786-0 renal; 1.5 µM in the test on A498 renal; 0.155 µM in the test with A549 NSCLC; 0.445 µM in the test on CAKI-1 renal; 0.112 µM with HL-60(TB) leukemia; 1.66 µM with MDA-MB-435. The results for the GI50 in the test with SK-MEL-5 melanoma, in the test with T-47D breast and in the test with UACC-257 melanoma were 0.523 µM, 0.24 µM and 1.34 µM, respectively. Further, the TGI in the test on 786-0 renal came to 4.28 µM; in the test on A498 renal, 5.86 µM; in the test with A549 NSCLC it was 1.58 µM; in the test with CAKI-1 renal it was 4.07 µM; with HL-60(TB) leukemia, 2.36 µM; in the test with MDA-MB-435, 8.91 µM. Besides, the TGI in the test with SK-MEL-5 melanoma was determined as 2.17 µM; in the test with SW-620 colon it was 3.65 µM; in the test on T-47D breast it was 4.17 µM; in the test on UACC-257 melanoma it was 8.99 µM.

For the molecule `O=C(/C=C/c1ccccc1)Nc1ncc(Cc2ccccc2Cl)s1`, the GI50 is 0.774 µM in the test on 786-0 renal; 0.176 µM in the test with A498 renal; 0.469 µM with A549 NSCLC; 0.329 µM with CAKI-1 renal; 0.285 µM in the test with HL-60(TB) leukemia; 0.0972 µM in the test on MDA-MB-435. For the same molecule, the GI50 with SK-MEL-5 melanoma was 0.341 µM; in the test with SW-620 colon, 0.413 µM; in the test with T-47D breast it was 0.513 µM; with UACC-257 melanoma, greater than 100 µM. Further, the TGI in the test with 786-0 renal is greater than 100 µM; with A498 renal, 0.68 µM; in the test on A549 NSCLC, greater than 100 µM; in the test on CAKI-1 renal, greater than 100 µM; in the test with HL-60(TB) leukemia it was 0.872 µM; in the test on MDA-MB-435 it was 0.344 µM. For the same molecule, the TGI in the test with SW-620 colon, in the test with T-47D breast and in the test with UACC-257 melanoma was greater than 100 µM in each case.

Regarding `O=C1C(=O)c2ccccc2C(O)=C1C(C1=C(O)c2ccccc2C(=O)C1=O)c1ccc(Cl)cc1`, the TGI in the test with 786-0 renal was determined as 11.2 µM; in the test with A498 renal, 34 µM; in the test on A549 NSCLC, 42.2 µM; with CAKI-1 renal, 23.8 µM; with HL-60(TB) leukemia it was 4.83 µM; with MDA-MB-435, 3.38 µM. Also, the TGI was 19.9 µM in the test with SK-MEL-5 melanoma, greater than 73.7 µM in the test with SW-620 colon, greater than 57.7 µM in the test with T-47D breast and 17 µM in the test on UACC-257 melanoma.

As for `CC1(C)N=C(N)N=C(N)N1c1ccc(CCC(=O)Nc2ccc(S(=O)(=O)F)cc2)c(Cl)c1`, the GI50 in the test on 786-0 renal is 0.697 µM; in the test with A498 renal, 61.9 µM; with A549 NSCLC it was 0.517 µM; in the test with CAKI-1 renal it was 7.73 µM; in the test on HL-60(TB) leukemia it was 0.142 µM; with MDA-MB-435, 0.296 µM. Moreover, the GI50 with SK-MEL-5 melanoma was 0.591 µM; in the test with SW-620 colon, 0.144 µM; in the test on T-47D breast, 12.4 µM; in the test on UACC-257 melanoma it was greater than 42.5 µM. The TGI was greater than 100 µM with 786-0 renal; greater than 100 µM with A498 renal; greater than 100 µM in the test with A549 NSCLC; greater than 81.1 µM in the test on CAKI-1 renal; greater than 100 µM with HL-60(TB) leukemia; greater than 100 µM in the test on MDA-MB-435. The TGI in the test with SK-MEL-5 melanoma, with SW-620 colon, in the test on T-47D breast and with UACC-257 melanoma was greater than 100 µM in each case.

(Values after PubChem BioAssay (NCI).)
